# Measured values reported in patent US20090042937A1, “[…] USE IN TREATING OR […]-RELATED DISEASES” (priority 2005, published 2009).
# Where “and” joins values, the source holds several entries; their conditions need not be identical. Equal values may be shown once.
# Columns and labels:
# [1] = tested on: CD52 antigen (M55561); assay: Microarray gene expression in cardiac tissue of Tempol-fed mice; format: in vivo; conditions: 5 mg/g of food from 14 to 31 months
# Protocol: (§1) To assess the effects of Tempol on gene expression, Tempol was administered to experimental mice at a dose of 5 mg/g of food from 14 months to 31 months after birth. Mice receiving the same food without the addition of Tempol were used as a negative control. At the age of 31 months, the experimental animals were sacrificed and the hearts were surgically removed. The expression of a broad spectrum of genes in the cardiac tissue was assessed using chip-based microarray technology. Such chips are well known in the art and are widely used to assess gene expression.
# [2] = tested on: CD53 antigen (X97227); assay: as above; format: in vivo; conditions: 5 mg/g of food from 14 to 31 months
# Protocol: as §1
# [3] = tested on: Cathepsin B (M65270); assay: as above; format: in vivo
# Protocol: as §1
# [4] = tested on: Cyclophilin A (AA116993); assay: as above; format: in vivo; conditions: 5 mg/g of food from 14 to 31 months
# Protocol: as §1
# [5] = tested on: Hsp-90 homolog (W62326); assay: as above; format: in vivo; conditions: 5 mg/g of food from 14 to 31 months
# Protocol: as §1
# [6] = tested on: Immunophilin (FKBP25) (AA120298); assay: as above; format: in vivo; conditions: 5 mg/g of food from 14 to 31 months
# Protocol: as §1
# [7] = tested on: Interferon induced protein (AA013783); assay: as above; format: in vivo; conditions: 5 mg/g of food from 14 to 31 months
# Protocol: as §1
# [8] = tested on: Interferon α-induced 11.5 kd protein (P27) (AA120109); assay: as above; format: in vivo; conditions: 5 mg/g of food from 14 to 31 months
# Protocol: as §1
# [9] = tested on: Interferon γ-inducible protein/IRG 47GTP-binding (M63690); assay: as above; format: in vivo; conditions: 5 mg/g of food from 14 to 31 months
# Protocol: as §1
# [10] = tested on: Interferon-inducible protein (AA002526); assay: as above; format: in vivo; conditions: 5 mg/g of food from 14 to 31 months
# Protocol: as §1
# [11] = tested on: JAK-1 (AA066354); assay: as above; format: in vivo
# Protocol: as §1
# [12] = tested on: Lymphocyte receptor/polyubiquitin (W13546); assay: as above; format: in vivo; conditions: 5 mg/g of food from 14 to 31 months
# Protocol: as §1
# [13] = tested on: Selenium-binding protein 2 (M32032); assay: as above; format: in vivo; conditions: 5 mg/g of food from 14 to 31 months
# Protocol: as §1
# [14] = tested on: Serum amyloid A-1 protein precursor (M13521); assay: as above; format: in vivo
# Protocol: as §1
# [15] = tested on: Serum amyloid P-component precursor (SAP) (Y00426); assay: as above; format: in vivo
# Protocol: as §1
# [16] = tested on: T-cell specific GTPase (U15636); assay: as above; format: in vivo; conditions: 5 mg/g of food from 14 to 31 months
# Protocol: as §1
# [17] = tested on: T-lymphocyte 1/rpt-1 regulatory protein (J03776); assay: as above; format: in vivo; conditions: 5 mg/g of food from 14 to 31 months
# Protocol: as §1
# [18] = tested on: XPE UV-damaged DNA binding factor (W62091); assay: as above; format: in vivo; conditions: 5 mg/g of food from 14 to 31 months
# Protocol: as §1
# [19] = tested on: XPE-DNA damage binding protein (AA104319); assay: as above; format: in vivo; conditions: 5 mg/g of food from 14 to 31 months
# Protocol: as §1
# [20] = tested on: Caspase 3; assay: Microarray gene expression in adipose tissue of Tempol-fed mice; format: in vivo
# Protocol: (§2) In a further gene expression study, Tempol was administered to experimental mice at a dose of 5 g/kg of diet from 12 months through 15 months. Mice receiving the same diet without the addition of Tempol were used as a negative control. At the age of 15 months, the adipose tissue of the experimental animals was obtained. The expression of a broad spectrum of genes in the adipose tissue was assessed using chip-based microarray technology. Specifically, in this case an Affymetrix MOE430A 2.0 array, containing 12,960 genes, was employed. Such chips are well known in the art and are widely used to assess gene expression.
# [21] = tested on: Cyclooxygenase 1 (COX-1); assay: as above; format: in vivo
# Protocol: as §2
# [22] = tested on: Eukaryotic translation initiation factor 4 E2 (EIF4E2); assay: as above; format: in vivo
# Protocol: as §2
# [23] = tested on: Eukaryotic translation initiation factor for E binding protein 1 (EIF4EBP1); assay: as above; format: in vivo
# Protocol: as §2
# [24] = tested on: JAK-1; assay: Circulating serum protein levels in patient after Tempol treatment; format: in vivo, human; conditions: 1500 mg per day for 180 days
# From the text: (§3) This may be administered in a single dose, or may be administered as a number of smaller doses over a 24-hour period: for example, three 500-mg doses at eight-hour intervals. Following treatment, the circulating serum protein levels of serum amyloid P-component precursor, serum amyloid A-1 protein precursor, JAK-1, cathepsin B, eukaryotic translation initiation factor 4E member 2, cyclooxygenase-1, and caspase 3 are reduced. Furthermore, the serum protein levels of eukaryotic translation initiation factor 4E binding protein are increased.
# as §3, with “JAK-1, and” for “JAK-1,”
# [25] = tested on: caspase 3; assay: as above; format: in vivo, human; conditions: 1500 mg per day for 180 days
# From the text: as §3
# as §3, with “JAK-1, and” for “JAK-1,”
# [26] = tested on: cathepsin B; assay: as above; format: in vivo, human; conditions: 1500 mg per day for 180 days
# From the text: as §3
# as §3, with “JAK-1, and” for “JAK-1,”
# [27] = tested on: cyclooxygenase-1; assay: as above; format: in vivo, human; conditions: 1500 mg per day for 180 days
# From the text: as §3
# as §3, with “JAK-1, and” for “JAK-1,”
# [28] = tested on: eukaryotic translation initiation factor 4E binding protein; assay: as above; format: in vivo, human; conditions: 1500 mg per day for 180 days
# From the text: as §3
# as §3, with “JAK-1, and” for “JAK-1,”
# [29] = tested on: eukaryotic translation initiation factor 4E member 2; assay: as above; format: in vivo, human; conditions: 1500 mg per day for 180 days
# From the text: as §3
# as §3, with “JAK-1, and” for “JAK-1,”
# [30] = tested on: serum amyloid A-1 protein precursor; assay: as above; format: in vivo, human; conditions: 1500 mg per day for 180 days
# From the text: as §3
# as §3, with “JAK-1, and” for “JAK-1,”
# [31] = tested on: serum amyloid P-component precursor; assay: as above; format: in vivo, human; conditions: 1500 mg per day for 180 days
# From the text: as §3
# as §3, with “JAK-1, and” for “JAK-1,”
# [32] = cardiac tissue of experimental mice, Table 1
# [33] = adipose tissue of experimental mice, Table 4
# [34] = Example 1: 70-kilogram patient with symptoms of dementia
# [35] = Example 2: 70-kilogram patient with familial risk factors, no symptoms of dementia
structure (smiles),measurement,setting,value
"CC1(C)CC(O)CC(C)(C)N1[O] [Tempol, 4-hydroxy-2,2,6,6-tetramethylpiperidine-1-oxyl]",Fold change,[1]; TEMPOL-treated vs control mice,−3.5 fold
same,"Expression, TEMPOL-treated mice (tp51, tp52, tp53)",[1]; individual mice,106 and 177 and 171
same,Fold change,[2]; TEMPOL-treated vs control mice,−2.1 fold
same,"Expression, TEMPOL-treated mice (tp51, tp52, tp53)",[2]; individual mice,21 and −17 and −13
same,Fold change,"[3]; M65270, cardiac tissue, TEMPOL-treated vs control mice, 5 mg/g of food from 14 to 31 months",−2.8 fold
same,"Expression, TEMPOL-treated mice (tp51, tp52, tp53)","[3]; M65270, cardiac tissue, individual mice, 5 mg/g of food from 14 to 31 months",−12 and 6 and 13
same,expression of cathepsin B reduced,"[3]; cardiac tissue of experimental mice, text restating Table 2",2.8 fold
same,Fold change,[4]; TEMPOL-treated vs control mice,−2.1 fold
same,"Expression, TEMPOL-treated mice (tp51, tp52, tp53)",[4]; individual mice,12 and −14 and −10
same,Fold change,[5]; TEMPOL-treated vs control mice,−2.4 fold
same,"Expression, TEMPOL-treated mice (tp51, tp52, tp53)",[5]; individual mice,6 and 16 and 39
same,Fold change,[6]; TEMPOL-treated vs control mice,−2.1 fold
same,"Expression, TEMPOL-treated mice (tp51, tp52, tp53)",[6]; individual mice,200 and 154 and 164
same,Fold change,[7]; TEMPOL-treated vs control mice,−4.9 fold
same,"Expression, TEMPOL-treated mice (tp51, tp52, tp53)",[7]; individual mice,−81 and 27 and 41
same,Fold change,[8]; TEMPOL-treated vs control mice,−2.3 fold
same,"Expression, TEMPOL-treated mice (tp51, tp52, tp53)",[8]; individual mice,149 and 88 and 72
same,Fold change,[9]; TEMPOL-treated vs control mice,−2.0 fold
same,"Expression, TEMPOL-treated mice (tp51, tp52, tp53)",[9]; individual mice,29 and 20 and 1
same,Fold change,[10]; TEMPOL-treated vs control mice,−2.7 fold
same,"Expression, TEMPOL-treated mice (tp51, tp52, tp53)",[10]; individual mice,26 and 34 and 36
same,Fold change,"[11]; AA066354, cardiac tissue, TEMPOL-treated vs control mice, 5 mg/g of food from 14 to 31 months",−5.1 fold
same,"Expression, TEMPOL-treated mice (tp51, tp52, tp53)","[11]; AA066354, cardiac tissue, individual mice, 5 mg/g of food from 14 to 31 months",124 and 22 and 30
same,expression of JAI(-1 reduced),[11]; [32],5.1 fold
same,Fold change,[12]; TEMPOL-treated vs control mice,−55.2 fold
same,"Expression, TEMPOL-treated mice (tp51, tp52, tp53)",[12]; individual mice,−16 and −66 and 1331
same,Fold change,[13]; TEMPOL-treated vs control mice,−2.1 fold
same,"Expression, TEMPOL-treated mice (tp51, tp52, tp53)",[13]; individual mice,554 and 600 and 670
same,Fold change,"[14]; M13521, cardiac tissue, TEMPOL-treated vs control mice, 5 mg/g of food from 14 to 31 months",−2.5 fold
same,"Expression, TEMPOL-treated mice (tp51, tp52, tp53)","[14]; M13521, cardiac tissue, individual mice, 5 mg/g of food from 14 to 31 months",6 and 1 and 8
same,expression of serum amyloid A-1 protein precursor reduced,[14]; [32],2.5 fold
same,Fold change,"[15]; Y00426, cardiac tissue, TEMPOL-treated vs control mice, 5 mg/g of food from 14 to 31 months",−2.8 fold
same,"Expression, TEMPOL-treated mice (tp51, tp52, tp53)","[15]; Y00426, cardiac tissue, individual mice, 5 mg/g of food from 14 to 31 months",43 and 61 and 119
same,expression of serum amyloid P component precursor reduced,[15]; [32],2.8 fold
same,Fold change,[16]; TEMPOL-treated vs control mice,−2.0 fold
same,"Expression, TEMPOL-treated mice (tp51, tp52, tp53)",[16]; individual mice,146 and 79 and 164
same,Fold change,[17]; TEMPOL-treated vs control mice,−2.7 fold
same,"Expression, TEMPOL-treated mice (tp51, tp52, tp53)",[17]; individual mice,17 and 42 and 29
same,Fold change,[18]; TEMPOL-treated vs control mice,−2.9 fold
same,"Expression, TEMPOL-treated mice (tp51, tp52, tp53)",[18]; individual mice,61 and 75 and 213
same,Fold change,[19]; TEMPOL-treated vs control mice,−5.2 fold
same,"Expression, TEMPOL-treated mice (tp51, tp52, tp53)",[19]; individual mice,25 and 37 and 115
same,Mean (Tempol-treated mice),"[20]; Caspase 3, adipose tissue, 5 g/kg of diet from 12 through 15 months, Affymetrix MOE430A 2.0 array",414
same,Fold change,"[20]; Caspase 3, adipose tissue, Tempol-treated vs control mice, 5 g/kg of diet from 12 through 15 months",−1.47 fold
same,expression of caspase 3 reduced,[20]; [33],1.47 fold
same,Mean (Tempol-treated mice),"[21]; COX-1, adipose tissue, 5 g/kg of diet from 12 through 15 months, Affymetrix MOE430A 2.0 array",331
same,Fold change,"[21]; COX-1, adipose tissue, Tempol-treated vs control mice, 5 g/kg of diet from 12 through 15 months",−1.18 fold
same,expression of COX-1 reduced,[21]; [33],1.18 fold
same,Mean (Tempol-treated mice),"[22]; EIF4E2, 5 g/kg of diet from 12 through 15 months, Affymetrix MOE430A 2.0 array",873
same,Fold change,"[22]; EIF4E2, Tempol-treated vs control mice, 5 g/kg of diet from 12 through 15 months",−1.23 fold
same,expression of the EIF4E2 protein downregulated,[22]; Table 4,1.23 fold
same,Mean (Tempol-treated mice),"[23]; EIF4EBP1, 5 g/kg of diet from 12 through 15 months, Affymetrix MOE430A 2.0 array",4737
same,Fold change,"[23]; EIF4EBP1, Tempol-treated vs control mice, 5 g/kg of diet from 12 through 15 months",1.29 fold
same,expression of EIF4E binding protein 1 upregulated,[23]; Table 3,1.29 fold
same,circulating serum protein level of JAK-1,[24]; [34],reduced
same,circulating serum protein level of JAK-1,[24]; [35],reduced
same,circulating serum protein level of caspase 3,[25]; [34],reduced
same,circulating serum protein level of caspase 3,[25]; [35],reduced
same,circulating serum protein level of cathepsin B,[26]; [34],reduced
same,circulating serum protein level of cathepsin B,[26]; [35],reduced
same,circulating serum protein level of cyclooxygenase-1,[27]; [34],reduced
same,circulating serum protein level of cyclooxygenase-1,[27]; [35],reduced
same,serum protein level of eukaryotic translation initiation factor 4E binding protein,[28]; [34],increased
same,serum protein level of eukaryotic translation initiation factor 4E binding protein,[28]; [35],increased
same,circulating serum protein level of eukaryotic translation initiation factor 4E member 2,[29]; [34],reduced
same,circulating serum protein level of eukaryotic translation initiation factor 4E member 2,[29]; [35],reduced
same,circulating serum protein level of serum amyloid A-1 protein precursor,[30]; [34],reduced
same,circulating serum protein level of serum amyloid A-1 protein precursor,[30]; [35],reduced
same,circulating serum protein level of serum amyloid P-component precursor,[31]; [34],reduced
same,circulating serum protein level of serum amyloid P-component precursor,[31]; [35],reduced
